Where a chain is given by its changes, count along the chain named.

The target in assay [1] is T1, 5-HT3A receptor F130A mutant (Homo sapiens, UniProt P46098, F125A).
T1 construct: host or cells: Xenopus laevis oocytes injected with in vitro transcribed mRNA
T1 sequence (P46098 24-478 F125A): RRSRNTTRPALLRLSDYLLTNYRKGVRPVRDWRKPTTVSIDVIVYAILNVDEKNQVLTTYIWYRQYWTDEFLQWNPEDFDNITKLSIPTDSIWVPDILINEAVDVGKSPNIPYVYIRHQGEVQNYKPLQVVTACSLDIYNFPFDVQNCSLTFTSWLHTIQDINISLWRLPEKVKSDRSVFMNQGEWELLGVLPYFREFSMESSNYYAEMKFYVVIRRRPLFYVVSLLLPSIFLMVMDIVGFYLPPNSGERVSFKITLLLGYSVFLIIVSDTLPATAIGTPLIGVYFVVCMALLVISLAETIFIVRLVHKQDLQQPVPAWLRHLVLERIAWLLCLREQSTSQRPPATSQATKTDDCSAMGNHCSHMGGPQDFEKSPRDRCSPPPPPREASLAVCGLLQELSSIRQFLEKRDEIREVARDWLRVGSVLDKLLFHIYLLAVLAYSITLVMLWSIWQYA
Kind of assay: two-electrode voltage clamp, F130A mutant receptor in Xenopus oocytes. The class given is cell-based. To be noted: 100 µM chanoclavine, read-out: Inhibition Percentage (%). The method, then:
(§1) The site-directed mutation of one or two amino acids was performed using sense and antisense primers and Pfu polymerase (QuickChange Site-Directed Mutagenesis Kit; Agilent, Santa Clara, CA, USA) and amplified by polymerase chain reaction (PCR) to increase the target domain. After removing the existing methylated cDNA using Dpn Ⅰ, the PCR products were transformed into Escherichia coli strain DH5α. The cDNA of the 5-HT3A receptor was linearized by Xho Ⅰ at the end of the multi-cloning site, followed by transcription using T7 polymerase and a transcription kit (mMESSAGE mMACHINE T7 Transcription Kit; Thermo Fisher Scientific, Waltham, MA, USA). […]
(§2) To isolate oocytes, female Xenopus laevis were put into a container filled with ice and left for about one hour. […] When the Xenopus oocytes were ready for injection, 50 ng of mRNA was injected with a nanoliter injector (Drummond Scientific, Vernon Hills, IL, USA). […]
(§3) The oocytes in which mRNA was expressed during the incubation period allowed for the estimation of channel or receptor properties for observing drug and ligand potential interactions using a two-electrode voltage clamp (OC-725C; Warner Instruments, Hamden, CT, USA) and Digidata (1322A; Molecular Devices, Sunnyvale, CA, USA). […] The voltage and current electrodes were filled with 3 M KCl (0.3–0.7 MΩ) and analyzed at a −80 mV holding potential. […]

In assay [2] the test system is 5-HT3A receptor I228A mutant. The assay can be described thus: two-electrode voltage clamp, I228A mutant receptor in Xenopus oocytes. The class given is cell-based, human. Particulars: 100 µM chanoclavine. The method, then:
as §1, §2, §3

Assay [3] concerns the target T2, 5-HT3A receptor I71A mutant (Homo sapiens, UniProt P46098, I66A).
T2 construct: host or cells: Xenopus laevis oocytes injected with in vitro transcribed mRNA
T2 sequence (P46098 24-478 I66A): T1 sequence (P46098 24-478 F125A) with I43A, A102F
Kind of assay: two-electrode voltage clamp, I71A mutant receptor in Xenopus oocytes. To be noted: 100 µM chanoclavine, read-out: Inhibition Percentage (%). Type of assay: cell-based. The method, then: as §1, §2, §3
On the technique in general: Two-electrode voltage clamp holds a large cell at a set potential and records current.

Take `CN[C@@H]1Cc2c[nH]c3cccc(c23)[C@H]1/C=C(\C)CO` [chanoclavine]: the inhibition (in general, the share of the control response that was lost under treatment) at 100 µM was determined as 9.36 ± 4.3% in assay [1] and 62.7 ± 3.1% in assay [3]. Also, the “Inhibition Percentage (%)” value in assay [2] worked out at 66.16 ± 9.2%.

(Values after publication PMC7956620 (Molecules, 2021).)
